Measurements published in the NIST ThermoML archive (doi:10.1016/j.fluid.2018.12.025).
Where “and” joins values, the source holds several entries; their conditions need not be identical. Identical values can stand only once. Numbers after ± are expanded uncertainties.

Conditions: 101.33 kPa, Liquid, transient hot wire

Cc1ccccc1 [toluene]
thermal conductivity (276.19 K): 0.1359 ± 0.0044 W/m/K | thermal conductivity (278.42 K): 0.1339 ± 0.0043 W/m/K | thermal conductivity (281.25 K): 0.1324 ± 0.0043 W/m/K and 0.1325 ± 0.0043 W/m/K | thermal conductivity (302.05 K): 0.129 ± 0.0042 W/m/K | thermal conductivity (304.59 K): 0.1268 ± 0.0041 W/m/K | thermal conductivity (329.65 K): 0.1235 ± 0.004 W/m/K | thermal conductivity (331.24 K): 0.1237 ± 0.004 W/m/K | thermal conductivity (337.63 K): 0.1242 ± 0.004 W/m/K | thermal conductivity (339.65 K): 0.122 ± 0.0039 W/m/K | thermal conductivity (339.85 K): 0.1226 ± 0.004 W/m/K | thermal conductivity (340.17 K): 0.12 ± 0.0039 W/m/K | thermal conductivity (351.33 K): 0.1166 ± 0.0038 W/m/K | thermal conductivity (351.55 K): 0.12 ± 0.0039 W/m/K | thermal conductivity (352.25 K): 0.1179 ± 0.0038 W/m/K

CCCC[N+]1(C)CCCC1.O=S(=O)([N-]S(=O)(=O)C(F)(F)F)C(F)(F)F
thermal conductivity (279.16 K): 0.1159 ± 0.0037 W/m/K | thermal conductivity (294.59 K): 0.115 ± 0.0037 W/m/K | thermal conductivity (306.65 K): 0.1157 ± 0.0037 W/m/K | thermal conductivity (334.78 K): 0.114 ± 0.0037 W/m/K | thermal conductivity (335.13 K): 0.1143 ± 0.0037 W/m/K | thermal conductivity (338.98 K): 0.1136 ± 0.0037 W/m/K | thermal conductivity (353.98 K): 0.1153 ± 0.0037 W/m/K | thermal conductivity (362.23 K): 0.1135 ± 0.0037 W/m/K | thermal conductivity (364.36 K): 0.1142 ± 0.0037 W/m/K | thermal conductivity (383.56 K): 0.1134 ± 0.0037 W/m/K | thermal conductivity (419.99 K): 0.1126 ± 0.0036 W/m/K | thermal conductivity (438.07 K): 0.1123 ± 0.0036 W/m/K

O [water]
thermal conductivity (276.41 K): 0.5538 ± 0.018 W/m/K | thermal conductivity (300.61 K): 0.6257 ± 0.02 W/m/K | thermal conductivity (303.32 K): 0.6103 ± 0.02 W/m/K | thermal conductivity (306.14 K): 0.6095 ± 0.02 W/m/K | thermal conductivity (325.57 K): 0.6581 ± 0.021 W/m/K | thermal conductivity (329.48 K): 0.6422 ± 0.021 W/m/K | thermal conductivity (333.39 K): 0.6498 ± 0.021 W/m/K | thermal conductivity (350.97 K): 0.6877 ± 0.022 W/m/K | thermal conductivity (355.05 K): 0.672 ± 0.022 W/m/K | thermal conductivity (356 K): 0.6781 ± 0.022 W/m/K | thermal conductivity (356.22 K): 0.6716 ± 0.022 W/m/K | thermal conductivity (356.54 K): 0.6823 ± 0.022 W/m/K | thermal conductivity (356.76 K): 0.6589 ± 0.021 W/m/K | thermal conductivity (356.9 K): 0.6827 ± 0.022 W/m/K | thermal conductivity (360.47 K): 0.6765 ± 0.022 W/m/K | thermal conductivity (361.52 K): 0.6756 ± 0.022 W/m/K

CCC[N+]1(C)CCCC1.O=S(=O)([N-]S(=O)(=O)C(F)(F)F)C(F)(F)F
thermal conductivity (279.07 K): 0.118 ± 0.0038 W/m/K | thermal conductivity (300.88 K): 0.1176 ± 0.0038 W/m/K | thermal conductivity (318.32 K): 0.1174 ± 0.0038 W/m/K | thermal conductivity (326.71 K): 0.1167 ± 0.0038 W/m/K | thermal conductivity (340.17 K): 0.1178 ± 0.0038 W/m/K | thermal conductivity (351.81 K): 0.1166 ± 0.0038 W/m/K | thermal conductivity (354.65 K): 0.1172 ± 0.0038 W/m/K | thermal conductivity (389.67 K): 0.1162 ± 0.0038 W/m/K | thermal conductivity (408.29 K): 0.1142 ± 0.0037 W/m/K | thermal conductivity (409.24 K): 0.1156 ± 0.0037 W/m/K | thermal conductivity (434.89 K): 0.115 ± 0.0037 W/m/K | thermal conductivity (435.53 K): 0.1138 ± 0.0037 W/m/K
